pIC50: −log10 of the molar value. Several values for one entry are separate records, joined by “and”; a condition that tells them apart may be missing. Identical values can stand only once.
Experiments:
Caspase-1 = target: T1, Caspase-1 (Homo sapiens, UniProt P29466); assay: Purified protease assay, fluorescence (Caspase-1); type: biochemical
T1 sequence (P29466 120-297 limits assumed): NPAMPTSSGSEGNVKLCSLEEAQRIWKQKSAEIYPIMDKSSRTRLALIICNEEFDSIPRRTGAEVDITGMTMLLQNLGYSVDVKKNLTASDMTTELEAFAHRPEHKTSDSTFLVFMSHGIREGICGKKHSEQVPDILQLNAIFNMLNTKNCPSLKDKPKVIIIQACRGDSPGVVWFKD
T1 sequence (P29466 317-404 limits assumed): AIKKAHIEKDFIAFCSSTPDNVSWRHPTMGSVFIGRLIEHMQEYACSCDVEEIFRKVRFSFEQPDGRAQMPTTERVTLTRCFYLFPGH
Text: (§1) . Product was quantified by fluorescence (n=2) (FIG. 19). Ac-YVAD-CHO and GM-6001 served as positive controls and were used at empirically determined IC50 concentrations.

[1] = target: TNFα converting enzyme (TACE) (Homo sapiens, UniProt P78536); assay: Purified protease assay, fluorescence (TACE); type: biochemical
Text: as §1

[2] = test system: arachidonic acid-induced topical inflammatory model in BALE/c mice; assay: Arachidonic acid-induced topical inflammatory model (ear swelling); type: in vivo
[3] = test system: oxazolone-induced topical inflammatory model in BALB/c mice; assay: Oxazolone-induced topical inflammatory model (ear swelling); type: in vivo
Protocol: To this end, we utilized two mouse models of allergic contact dermatitis, which are schematically illustrated in FIG. 12. […] Afterwards, the difference in the thickness of each of the two ears was compared to measure the extent of swelling (ie. inflammation).
As a further test, vehicle or the indicated compounds were administered topically in 40 μl doses 30 minutes before and 15 minutes after a second challenge (25 μl/ear of 1% oxazolone in acetone) (n=6). Ear thickness was measured 24 hours after the second challenge with a Dyer model micrometer gauge.

primary human monocytes = assay: IL-1β secretion and IL-1β species in LPS-induced primary human monocytes (ELISA, western blotting); type: cell-based
Protocol: Culture supernatants were analyzed for cytokine levels by ELISA (FIG. 16). […] Cell lysates were also analyzed for levels of IL-1β species by western blotting (FIG. 20).
Cells were treated with 1 mM ATP for 10 minutes. Culture supernatants were analyzed for IL-1β by ELISA (FIG. 18).

Sequence of TNFα converting enzyme (TACE) (P78536 215-824, species assumed): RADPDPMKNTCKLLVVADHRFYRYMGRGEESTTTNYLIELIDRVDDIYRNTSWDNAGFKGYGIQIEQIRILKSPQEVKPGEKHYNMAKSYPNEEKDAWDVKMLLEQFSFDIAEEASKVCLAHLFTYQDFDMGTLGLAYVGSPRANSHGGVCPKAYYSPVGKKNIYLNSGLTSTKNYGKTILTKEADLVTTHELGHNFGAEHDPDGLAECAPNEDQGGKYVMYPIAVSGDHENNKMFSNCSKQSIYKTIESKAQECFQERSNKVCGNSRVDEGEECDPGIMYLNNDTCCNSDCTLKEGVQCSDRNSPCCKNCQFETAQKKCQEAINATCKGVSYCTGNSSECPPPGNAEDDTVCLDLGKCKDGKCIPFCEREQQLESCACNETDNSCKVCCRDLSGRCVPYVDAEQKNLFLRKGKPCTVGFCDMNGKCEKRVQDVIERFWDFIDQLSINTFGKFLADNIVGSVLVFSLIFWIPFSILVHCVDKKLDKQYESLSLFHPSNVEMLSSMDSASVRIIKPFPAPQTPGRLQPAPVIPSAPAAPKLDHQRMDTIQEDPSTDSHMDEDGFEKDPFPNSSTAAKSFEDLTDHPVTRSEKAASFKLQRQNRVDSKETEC

## CC(=O)N[C@@H](Cc1ccc(O)cc1)C(=O)N[C@H](C(=O)N[C@@H](C)C(=O)N[C@H](C=O)CC(=O)O)C(C)C [Ac-YVAD-CHO, reference compound]
Caspase-1; positive control, read-out: empirically determined IC50 concentration, Caspase-1
  pIC50: 7.70

## COc1ccc(Cn2ccc3ccc(C(=O)NO)cc32)cc1 [Compound 23, 1-(4-methoxy-phenylmethyl)-1H-indole-6-carboxylic acid hydroxyamide]
[1]; 10 μM
  direct inhibition of TACE protease: does not Directly Inhibit
[2]; 1 mg
  arachidonic acid-induced inflammation (in words): reduced arachidonic acid-induced inflammation
[2]; TOP, 1 mg/ear × 2
  Ear thickness L. Ear, mean (X): 20.0 ×0.01 mm
  Ear thickness Net, mean (X): 9.7 ×0.01 mm
  Ear thickness R. Ear, mean (X): 29.7 ×0.01 mm
[2]; TOP, 1 mg/ear × 2, N 1-6
  Ear thickness L. Ear, individual animals: 20 ×0.01 mm (4×) and 21 ×0.01 mm and 19 ×0.01 mm
  Ear thickness Net, individual animals: 9 ×0.01 mm (3×) and 11 ×0.01 mm and 8 ×0.01 mm and 12 ×0.01 mm
  Ear thickness R. Ear, individual animals: 29 ×0.01 mm (2×) and 32 ×0.01 mm (2×) and 28 ×0.01 mm (2×)
[2]; TOP, 3 mg/ear × 2
  Ear thickness L. Ear, mean (X): 20.5 ×0.01 mm
  Ear thickness Net, mean (X): 10.3 ×0.01 mm
  Ear thickness R. Ear, mean (X): 30.8 ×0.01 mm
[2]; TOP, 3 mg/ear × 2, N 1-6
  Ear thickness L. Ear, individual animals: 21 ×0.01 mm (4×) and 19 ×0.01 mm and 20 ×0.01 mm
  Ear thickness Net, individual animals: 6 ×0.01 mm (2×) and 11 ×0.01 mm and 16 ×0.01 mm (2×) and 7 ×0.01 mm
  Ear thickness R. Ear, individual animals: 27 ×0.01 mm (2×) and 32 ×0.01 mm and 35 ×0.01 mm and 36 ×0.01 mm and 28 ×0.01 mm
[3]; 1 mg/ear × 2, topical
  Ear Thickness Net: 12.5 ± 1.8 0.01 mm
[3]; 3 mg/ear × 2, topical
  Ear Thickness Net: 7.3 ± 0.3 0.01 mm
Caspase-1; 10 μM
  direct inhibition of Caspase-1 protease: does not Directly Inhibit
Primary human monocytes; 2 μM lane
  pro-IL-1β levels in cell lysates, of control levels (densitometry): 153%
Primary human monocytes; 10 μM lane
  pro-IL-1β levels in cell lysates, of control levels (densitometry): 142%

## CNC(=O)[C@H](Cc1c[nH]c2ccccc12)NC(=O)[C@@H](CC(=O)NO)CC(C)C [GM-6001, reference compound]
[1]
  pIC50: 7.22

## COc1ccc2c(c1)c(CC(=O)O)c(C)n2C(=O)c1ccc(Cl)cc1 [Indomethacin, reference compound]
[2]; TOP, 3 mg/ear × 2
  % Inhibition: (62) %
  Ear thickness L. Ear, mean (X): 20.2 ×0.01 mm
  Ear thickness Net, mean (X): 5.5 ×0.01 mm
  Ear thickness R. Ear, mean (X): 25.7 ×0.01 mm
[2]; TOP, 3 mg/ear × 2, N 1-6
  Ear thickness L. Ear, individual animals: 19 ×0.01 mm and 21 ×0.01 mm (2×) and 20 ×0.01 mm (3×)
  Ear thickness Net, individual animals: 7 ×0.01 mm and 4 ×0.01 mm and 6 ×0.01 mm (2×) and 5 ×0.01 mm (2×)
  Ear thickness R. Ear, individual animals: 26 ×0.01 mm (4×) and 25 ×0.01 mm (2×)
[3]; 0.3 mg/ear × 2, topical
  Ear Thickness Net: 9.7 ± 1.0 0.01 mm
[3]; 0.3 mg/ear × 2, topical, relative to vehicle-treated control, ≧30% considered significant
  % Inhibition: (40) %
